Experimental data taken from patent US4743677A, “Calcitonin gene related peptide derivatives” (Toyo Jozo Co., Ltd., priority 1985, dated 1988).

Legend:
[1] = Isoelectric point (pI) of the purified peptide; type: physicochemical; settings: purified product
[2] = Stability in an aqueous solution; type: physicochemical
[3] = Serum phosphorus level lowering effect in rats (method of Goldenberg et al.); type: in vivo; settings: 80 μg/kg through tail vein, Wistar rats; for drop of serum phosphorus concentration compared with control group: blood at 30 and 60 minutes, control = dissolving solution only; for serum phosphorus concentration compared with h-CGRP administered group: versus h-CGRP 80 μg/kg
Description: (§1) h-CGRP, desalanyl-deamino-h-CGRP and desalanyl-[Asu^2,7 ] -h-CGRP, each 80 μg, were dissolved in 1 ml of a citrate buffer (pH 6.5) containing 0.1% of bovine serum albumin (hereinafter called "dissolving solution") and then administered to a group of 5-6 Wistar rats (80-90 g) at 80 μg/kg through their tail veins. Upon elapsed time of 30 minutes and 60 minutes, blood samples were collected from their abdominal descending aortas. The serum calcium concentrations were measured by atomic absorption spectrophotometry while the serum phosphorus concentrations were determined the method proposed by Goldenberg et al. [Clin Chem., 12, 871-882 (1966)] .

[4] = Serum calcium level lowering effect in rats (atomic absorption spectrophotometry); type: in vivo; settings: 80 μg/kg through tail vein, Wistar rats; for drop of serum calcium concentration compared with control group: blood at 30 and 60 minutes, control = dissolving solution only; for serum calcium concentration compared with h-CGRP administered group: versus h-CGRP 80 μg/kg
Description: as §1

| SMILES | pI [1] | stability in an aqueous solution [2] | drop of serum phosphorus concentration compared with control group [3] | serum phosphorus concentration compared with h-CGRP administered group [3] | drop of serum calcium concentration compared with control group [4] | serum calcium concentration compared with h-CGRP administered group [4] | activity exhibiting time (serum phosphorus lowering) compared with h-CGRP ([3]; 30 and 60 minutes) | activity exhibiting time (serum calcium lowering) compared with h-CGRP ([4]; 30 and 60 minutes) |
| --- | --- | --- | --- | --- | --- | --- | --- | --- |
| CC(C)C[C@H](NC(=O)CNC(=O)[C@H](C)NC(=O)[C@H](CC(C)C)NC(=O)[C@H](CCCNC(=N)N)NC(=O)[C@H](Cc1c[nH]cn1)NC(=O)[C@@H](NC(=O)[C@@H](NC(=O)[C@@H]1CCCCCC(=O)N[C@@H](CC(=O)O)C(=O)N[C@@H]([C@@H](C)O)C(=O)N[C@@H](C)C(=O)N[C@@H]([C@@H](C)O)C(=O)N1)C(C)C)[C@@H](C)O)C(=O)N[C@@H](CC(C)C)C(=O)N[C@@H](CO)C(=O)N[C@@H](CCCNC(=N)N)C(=O)N[C@@H](CO)C(=O)NCC(=O)NCC(=O)N[C@H](C(=O)N[C@H](C(=O)N[C@@H](CCCCN)C(=O)N[C@@H](CC(N)=O)C(=O)N[C@@H](CC(N)=O)C(=O)N[C@@H](Cc1ccccc1)C(=O)N[C@H](C(=O)N1CCC[C@H]1C(=O)N[C@H](C(=O)N[C@@H](CC(N)=O)C(=O)N[C@H](C(=O)NCC(=O)N[C@@H](CO)C(=O)N[C@@H](CCCCN)C(=O)N[C@@H](C)C(=O)N[C@@H](Cc1ccccc1)C(N)=O)C(C)C)[C@@H](C)O)C(C)C)C(C)C)C(C)C [desalanyl-[Asu^2,7]-h-CGRP] | ≥ 10.25 | extremely good stability | about 20% | dropped with significance | about 20% | dropped with significance |  |  |
| CC(C)C[C@H](NC(=O)CNC(=O)[C@H](C)NC(=O)[C@H](CC(C)C)NC(=O)[C@H](CCCNC(=N)N)NC(=O)[C@H](Cc1c[nH]cn1)NC(=O)[C@@H](NC(=O)[C@@H](NC(=O)[C@@H]1CSSCCC(=O)N[C@@H](CC(=O)O)C(=O)N[C@@H]([C@@H](C)O)C(=O)N[C@@H](C)C(=O)N[C@@H]([C@@H](C)O)C(=O)N1)C(C)C)[C@@H](C)O)C(=O)N[C@@H](CC(C)C)C(=O)N[C@@H](CO)C(=O)N[C@@H](CCCNC(=N)N)C(=O)N[C@@H](CO)C(=O)NCC(=O)NCC(=O)N[C@H](C(=O)N[C@H](C(=O)N[C@@H](CCCCN)C(=O)N[C@@H](CC(N)=O)C(=O)N[C@@H](CC(N)=O)C(=O)N[C@@H](Cc1ccccc1)C(=O)N[C@H](C(=O)N1CCC[C@H]1C(=O)N[C@H](C(=O)N[C@@H](CC(N)=O)C(=O)N[C@H](C(=O)NCC(=O)N[C@@H](CO)C(=O)N[C@@H](CCCCN)C(=O)N[C@@H](C)C(=O)N[C@@H](Cc1ccccc1)C(N)=O)C(C)C)[C@@H](C)O)C(C)C)C(C)C)C(C)C [desalanyl-deamino-h-CGRP] | ≥ 10.25 |  | about 20% | dropped with significance | about 20% | dropped with significance | prolonged | prolonged |
